B1: 219R45-MB-21R83: anti-VEGF/anti-DLL4 monovalent/bispecific antibody, heavy chains SEQ ID NO:7 and 62, light chains SEQ ID NO:8 (antibody)
heavy 1: QVQLVQSGAEVKKPGASVKVSCKASGYTFTNYWMHWVRQAPGQGLEWMGDINPSNGRTSYKEKFKRRVTLSVDKSSSTAYMELSSLRSEDTAVYFCTIHYDDKYYPLMDYWGQGTLVTVSSASTKGPSVFPLAPCSRSTSESTAALGCLVKDYFPEPVTVSWNSGALTSGVHTFPAVLQSSGLYSLSSVVTVPSSNFGTQTYTCNVDHKPSNTKVDKTVERKCCVECPPCPAPPVAGPSVFLFPPKPKDTLMISRTPEVTCVVVDVSHEDPEVQFNWYVDGVEVHNAKTKPREEQFNSTFRVVSVLTVVHQDWLNGKEYKCKVSNKGLPAPIEKTISKTKGQPREPQVYTLPPSREKMTKNQVSLTCLVKGFYPSDIAVEWESNGQPENNYKTTPPMLKSDGSFFLYSKLTVDKSRWQQGNVFSCSVMHEALHNHYTQKSLSLSPGK
heavy 2: QVQLVQSGAEVKKPGASVKISCKASGYSFTAYYIHWVKQAPGQGLEWIGYISNYNRATNYNQKFKGRVTFTTDTSTSTAYMELRSLRSDDTAVYYCARDYDYDVGMDYWGQGTLVTVSSASTKGPSVFPLAPCSRSTSESTAALGCLVKDYFPEPVTVSWNSGALTSGVHTFPAVLQSSGLYSLSSVVTVPSSNFGTQTYTCNVDHKPSNTKVDKTVERKCCVECPPCPAPPVAGPSVFLFPPKPKDTLMISRTPEVTCVVVDVSHEDPEVQFNWYVDGVEVHNAKTKPREEQFNSTFRVVSVLTVVHQDWLNGKEYKCKVSNKGLPAPIEKTISKTKGQPREPQVYTLPPSREEMTKNQVSLTCLVEGFYPSDIAVEWESNGQPENNYKTTPPMLDSDGSFFLYSELTVDKSRWQQGNVFSCSVMHEALHNHYTQKSLSLSPGK
light: DIVMTQSPDSLAVSLGERATISCRASESVDNYGISFMKWFQQKPGQPPKLLIYAASNQGSGVPDRFSGSGSGTDFTLTISSLQAEDVAVYYCQQSKEVPWTFGGGTKVEIKRTVAAPSVIFPPSDEQLKSGTASVVCLLNNFYPREAKVQWKVDNALQSGNSQESVTEQDSKDSTYSLSSTLTLSKADYEKHKVYACEVTHQGLSSPVTKSFNRGEC
modifications: 21R79 Heavy chain without predicted signal sequence; 21R83 Heavy chain without signal sequence; Light chain without predicted signal sequence

Key:
OMP-C8 colon tumor cells = assay: Tumor growth in human skin graft model; type: in vivo, NOD-SCID mice; conditions: 25 mg/kg intraperitoneally once a week
Procedure: FIG. 5. Inhibition of colon tumor growth in vivo by an anti-VEGF/anti-DLL4 bispecific antibody. OMP-C8 colon tumor cells were injected subcutaneously into a human skin graft in NOD/SCID mice. Mice were treated with control antibody (-▪-), anti-hDLL4 antibody 21M18 (-▴-), anti-VEGF antibody bevacizumab (-∘-), or anti-VEGF/anti-DLL4 bispecific antibody 219R45-MB-21M18 (-▾-). Data is shown as tumor volume (photons/sec) over days post-treatment. Antibodies were administered intraperitoneally at a dose of 25 mg/kg once a week.
A human skin graft model has been reported which comprises a human skin graft and human tumor cells. A human skin graft is established and then human tumor cells are implanted into the skin graft, allowing the tumor cells to grow in an environment with human stroma and vasculature (Tahtis et al., 2003, Mol. Cancer Ther. 2:[…]). Human skin samples were obtained from neonatal foreskin tissue and grafted onto the lateral flank of NOD-SCID mice. After establishment of the skin graft, luciferase-labeled OMP-C8 colon tumor cells (20,000 cells) were injected intradermally into the human skin. Tumor growth was monitored by bioluminescence imaging using an IVIS imaging system (Caliper Life Sciences, Mountain View, Calif.). Tumors were allowed to grow until they reached 1.2×10^6 photons per second. Tumor-bearing mice (n=6 mice/group) were randomized and treated with control Ab, anti-hDLL4 antibody 21M18, anti-VEGF antibody bevacizumab, or anti-VEGF/anti-DLL4 bispecific antibody 219R45-MB-21M18. Animals were treated once a week and antibodies were administered intraperitoneally at a dose of 25 mg/kg. Tumor growth was monitored by bioluminescence imaging on the indicated days.

[1] = system: OMP-PN8 pancreatic tumor cells; assay: Tumorigenicity of OMP-PN8 pancreatic tumor cells after treatment (serial transplantation); type: in vivo, NOD/SCID mice; conditions: 90 cells from treated tumors transplanted, day 55, no treatment; 21M18, bevacizumab 15 mg/kg, bispecifics 30 mg/kg, gemcitabine 70 mg/kg, four weeks
Procedure: FIG. 6. Tumorigenicity of pancreatic tumor cells after treatment with anti-VEGF/anti-DLL4 bispecific antibodies. OMP-PN8 tumor cells from mice treated with control antibody, anti-hDLL4 antibody 21M18, anti-VEGF antibody bevacizumab, or anti-VEGF/anti-DLL4 bispecific antibodies 219R45-MB-21M18 or 219R45-MB-21R79 with or without gemcitabine were processed to single cell suspensions, and serially transplanted into mice. 90 cells from each treatment group were injected subcutaneously into NOD/SCID mice. Tumors were allowed to grow with no treatment. Data is shown as tumor volume (mm^3) on day 55. Tumor frequency is shown as number of tumors over total number of mice injected in each group.
Mice bearing OMP-PN8 pancreatic tumors were treated with control antibody (15 mg/kg), anti-hDLL4 antibody 21M18 (15 mg/kg), anti-VEGF antibody bevacizumab (15 mg/kg), or anti-VEGF/anti-DLL4 bispecific antibodies 219R45-MB-21M18 or 219R45-MB-21R79 (30 mg/kg) with or without gemcitabine (70 mg/kg). Following four weeks of treatment, tumors were harvested, processed to single cell suspensions and the human tumor cells were purified by immunomagnetic depletion of murine cells. 90 human tumor cells from each treatment group were transferred to a new cohort of mice (n=10 mice/group). Tumors were allowed to grow for 55 days without any treatment and tumor volumes were measured with electronic calipers.

OMP-C8 colon tumor [2] = assay: Tumorigenicity of OMP-C8 colon tumors after treatment (serial transplantation); type: in vivo, NOD/SCID mice; conditions: 150 cells from treated tumors transplanted, day 68; without irinotecan combination
Procedure: FIG. 10. Tumorigenicity of […] colon tumor cells after treatment with anti-VEGF/anti-DLL4 bispecific antibodies. Tumors from mice treated with control antibody, anti-hDLL4 antibody 21M18, anti-VEGF antibody bevacizumab, a combination of 21M18 and bevacizumab, or anti-VEGF/anti-DLL4 bispecific antibodies 219R45-MB-21M18 or 219R45-MB-21R79 with or without irinotecan were processed to single cell suspensions, and serially transplanted into mice. 150 cells from each treatment group were injected subcutaneously into NOD/SCID mice. Tumors were allowed to grow with no treatment. Data are shown as tumor volume (mm^3) on day 68.
Single cell suspensions of OMP-C8 colon tumor xenografts (20,000 cells) were injected subcutaneously into the flanks of 6-8 week old NOD/SCID mice. Tumors were allowed to grow for 33 days until they reached an average volume of 300 mm^3. The mice were randomized (n=5 per group) and treated with anti-DLL4 antibody 21M18, anti-VEGF antibody bevacizumab, a combination of antibodies 21M18 and bevacizumab, anti-VEGF/anti-DLL4 bispecific antibody 219R45-MB-21M18, anti-VEGF/anti-DLL4 bispecific antibody 219R45-MB-21R79, or control antibody, either in combination with irinotecan or without irinotecan. Antibodies and irinotecan were dosed weekly by injection into the intraperitoneal cavity. Antibodies 21M18 and bevacizumab were dosed at 7.5 mg/kg, bispecific antibodies 219R45-MB-21M18 and 219R45-MB-21R79 were dosed at 15 mg/kg, and irinotecan was dosed at 45 mg/kg. Tumors were harvested after 4 weeks, processed into single cell suspensions, and the human tumor cells were isolated. 150 tumor cells from each experimental group were injected subcutaneously into a new cohort of mice (n=10 per group) and tumors were allowed to grow without treatment. Tumor growth was monitored and tumor volumes were measured with electronic calipers.

OMP-C8 colon tumor [3] = assay: OMP-C8 colon tumor growth in vivo; set-up: species or system NOD/SCID mice
Procedure: FIGS. 11A and 11B. Inhibition of colon tumor growth in vivo by anti-VEGF/anti-DLL4 bispecific antibodies. OMP-C8 colon tumor cells were injected subcutaneously into NOD/SCID mice. Mice were treated with control antibody (-▪-), anti-VEGF antibody bevacizumab (-▴-), or anti-VEGF/anti-DLL4 bispecific antibodies 219R45-MB-21M18 (-⋄-), 219R45-MB-21R75 (-●-), 219R45-MB-21R79 (-∘-), or 219R45-MB-21R83 (-▾-). Mice were treated with antibodies as single agents (FIG. 11A) or in combination with irinotecan (FIG. 11B). Antibodies were administered intraperitoneally at a dose of 15 mg/kg once a week and irinotecan at a dose of 7.5 mg/kg one a week. Data are shown as tumor volume (mm^3) over days post-treatment.
Single cell suspensions of OMP-C8 colon tumor xenografts (50,000 cells) were injected subcutaneously into the flanks of 6-8 week old NOD/SCID mice. Tumors were allowed to grow for 21 days until they reached an average volume of 80 mm^3. The mice were randomized (n=8 per group) and treated with anti-DLL4 antibody 21M18, anti-VEGF antibody bevacizumab, anti-VEGF/anti-DLL4 bispecific antibodies 219R45-MB-21M18, 219R45-MB-21R75, 219R45-MB-21R79, 219R45-MB-21R83, or control antibody, either alone or in combination with irinotecan. Antibodies and irinotecan were dosed weekly by injection into the intraperitoneal cavity. Bevacizumab and bispecific antibodies 219R45-MB-21M18, 219R45-MB-21R75, 219R45-MB-21R79, and 219R45-MB-21R83 were dosed at 15 mg/kg, and irinotecan was dosed at 7.5 mg/kg. Tumor growth was monitored and tumor volumes were measured with electronic calipers at the indicated time points. Data are expressed as mean±S.E.M.
Following the treatment phase, tumor sections were prepared and analyzed by hematoxylin and eosin (H&E) staining. […] This is characteristic of highly necrotic tumor tissue.

Row | Molecule | inhibition of tumor growth (bioluminescence) (OMP-C8 colon tumor cells) | tumor growth frequency (mice with tumors) [1] | tumor growth frequency, single agents (OMP-C8 colon tumor [2]) | inhibition of tumor growth in combination with irinotecan (OMP-C8 colon tumor [3]; antibody 15 mg/kg, irinotecan 7.5 mg/kg weekly ip) | H&E staining of tumor sections after treatment (OMP-C8 colon tumor [3]; in combination with irinotecan)
1 | bevacizumab [reference compound] | inhibited tumor growth | 10 out of 10 | had no effect on tumor growth frequency | – | –
2 | CCc1c2c(nc3ccc(OC(=O)N4CCC(N5CCCCC5)CC4)cc13)-c1cc3c(c(=O)n1C2)COC(=O)[C@]3(O)CC [irinotecan, reference compound] | – | – | reduced tumor growth frequency | – | –
3 | Nc1ccn([C@@H]2O[C@H](CO)[C@@H](O)C2(F)F)c(=O)n1 [gemcitabine, reference compound] | – | 10 out of 10 | – | – | –
4 | B1 | – | – | – | greatest inhibition of tumor growth | dark pink staining regions providing evidence of extensive calcification

— patent US11512128B2, “VEGF/DLL4 binding agents and uses thereof” (MEREO BIOPHARMA 5, INC., priority 2011, dated 2022)
